We go through eight molecules from patent US20020010182A1, “Piperazine derivatives as tachykinin antagonists” (FUJISAWA PHARMACEUTICAL CO., LTD., priority 1995, published 2002).

Usually inhibition stands for the change of the read-out against control, counted positive when it falls. As a reminder, the melting point is the temperature, or range, at which the solid turns liquid.

For one data set, the target named is T1, h-NK1 receptors (Homo sapiens, UniProt P25103).
T1 construct: expressed in transfected cells; host or cells: CHO cells (permanent expression), crude cell membranes
T1 sequence (P25103 whole entry): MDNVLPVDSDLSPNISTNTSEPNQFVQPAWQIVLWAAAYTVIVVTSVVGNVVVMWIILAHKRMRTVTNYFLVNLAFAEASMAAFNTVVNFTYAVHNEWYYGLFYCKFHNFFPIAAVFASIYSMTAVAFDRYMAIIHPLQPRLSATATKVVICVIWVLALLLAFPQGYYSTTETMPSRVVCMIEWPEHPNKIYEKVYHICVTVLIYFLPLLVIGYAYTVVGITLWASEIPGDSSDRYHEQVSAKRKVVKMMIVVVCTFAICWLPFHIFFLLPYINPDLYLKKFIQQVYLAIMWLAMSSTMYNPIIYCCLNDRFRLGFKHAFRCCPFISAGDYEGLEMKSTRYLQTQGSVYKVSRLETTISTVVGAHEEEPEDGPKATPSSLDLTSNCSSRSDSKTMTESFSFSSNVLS
Briefly: Evaluation of NK1 antagonist transport efficiency to the central nervous system using a h-NK1 receptor binding assay. To be noted: 5 min, brain extract of male SD rats 5 min after i.v. injection of test compound, CHO cell membranes expressing h-NK1, read-out: inhibition rate of 125I-BH-Substance P binding to h-NK1 receptors. Summed up:
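Male SD rats dosed i.v. at 1 mg/kg; brain removed 5 min later after saline perfusion, homogenized, extracted with ethyl acetate. Extract competed against 0.1 nM 125I-BH-Substance P on CHO h-NK1 membranes, 22 °C, 90 min, pH 7.4 Mn2+ buffer; specific binding defined with 3 μM unlabeled Substance P.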

A further data set relates to emesis in the ferret. Nature of the data set: Emesis in the ferret (copper sulfate induced). As to conditions: i.p. dose of 3.2 and/or 10 mg/kg, 30 min before intra-gastric copper sulfate (40 mg/kg/ml); retching and vomiting observed for 30 min. Type of data set: in vivo. As for the experimental part: Individually housed adult male ferrets (Marshall Farms, 1.4 to 2.2 kg) were given an i.p. injection of a solution containing a test compound 30 Min later the emetic responses (retching and vomiting) were induced by administration of intra-gastric copper sulfate (40 mg/kg/ml) and observed for the next 30 min. The timing and number of retches and vomits observed were recorded for each animal. An individual animal was tested with at least 10 days between experiments.

As for `Cc1ccc(C[C@@H]2CN(CCCN3CCSCC3)CCN2C(=O)c2cc(C(F)(F)F)cc(C(F)(F)F)c2)cc1C.Cl.Cl` [24-(2), (2R)-1-[3,5-Bis(trifluoromethyl)benzoyl]-2-(3,4-dimethylbenzyl)-4-(3-thiomorpholinopropyl) piperazine dihydrochloride], the melting point was 272 °C (dec.). On h-NK1 receptors, the inhibition at 1 mg/kg was more than 80%. For the same molecule, in the data set on emesis in the ferret, the “inhibition rate of emesis in the ferret” value came out at 100%.
On to `Cc1ccc(C[C@@H]2CN(CCN3CCOCC3)CCN2C(=O)c2cc(C(F)(F)F)cc(C(F)(F)F)c2)cc1C.Cl.Cl` [37-(5), (2R)-4-(2-Morpholinoethyl)-1-[3,5-bis(trifluoromethyl)benzoyl]-2-(3,4-dimethylbenzyl)piperazine dihydrocloride], for which the “inhibition rate of emesis in the ferret” value in the data set on emesis in the ferret worked out at 100%.
For the molecule `CC(=O)c1ccc(C(=O)N2CCN(C(=O)c3cc(C(F)(F)F)cc(C(F)(F)F)c3)[C@H](Cc3ccc(Cl)c(Cl)c3)C2)cc1` [Example 12, (2R)-4-(4-acetylbenzoyl)-1-[3,5-bis (trifluoromethyl)benzoyl]-2-(3,4-dichlorobenzyl)piperazine], the inhibition at 1 mg/kg on h-NK1 receptors is more than 80%. The “inhibition rate of emesis in the ferret” value in the data set with emesis in the ferret was determined as 100%.
In the case of `Cl.Cl.O=C(c1cc(C(F)(F)F)cc(C(F)(F)F)c1)N1CCN(CCCN2CC3CCC(CC3)C2)C[C@H]1Cc1c[nH]c2ccccc12` [Example 22, (2R)-4-[3-(3-azabicyclo(3.2.2]non-3-yl)propyl]-1-[3,5-bis(trifluoromethyl)benzoyl]-2-(1H-indol-3-ylmethyl) piperazine dihydrochloride], the melting point is 194 to 202 °C. Further, the inhibition at 1 mg/kg on h-NK1 receptors was more than 80%. Besides, the “inhibition rate of emesis in the ferret” value in the data set with emesis in the ferret stood at 100%.
With `Cl.Cl.O=C(c1cc(C(F)(F)F)cc(C(F)(F)F)c1)N1CCN(CCCN2CCSCC2)C[C@H]1Cc1c[nH]c2ccccc12` [Example 23, (2R)-1-[3,5-bis(trifluoromethyl)benzoyl]-2-(1H-indol-3-ylmethyl)-4-(3-thiomorpholinopropyl) piperazine dihydrochloride], the inhibition at 1 mg/kg at h-NK1 receptors is more than 80%. The “inhibition rate of emesis in the ferret” value in the data set on emesis in the ferret turned out to be 100%.
`Cl.Cl.O=C(c1cc(C(F)(F)F)cc(C(F)(F)F)c1)N1CCN(CCN2CCSCC2)C[C@H]1Cc1c[nH]c2ccccc12` [Example 37-(6), (2R)-4-(2-Thiomorpholinoethyl)-1-[3,5-bis (trifluoromethyl)benzoyl]-2-(1H-indol-3-ylmethyl) piperazine dihydrochloride] returned a melting point of 170 to 182 °C. In addition, the inhibition at 1 mg/kg on h-NK1 receptors is more than 80%. For the same molecule, the “inhibition rate of emesis in the ferret” value in the data set on emesis in the ferret was 100%.
With `Cl.Cn1cc(CN2CCN(C(=O)c3cc(C(F)(F)F)cc(C(F)(F)F)c3)[C@H](Cc3c[nH]c4ccccc34)C2)cn1` [Example 77, (2R)-1-[3,5-bis (trifluoromethyl)benzoyl]-2-(1H-indol-3-ylmethyl)-4-[(1-methyl-1H-pyrazol-4-yl)methyl]piperazine hydrochloride], the melting point lay in the range of 122 to 136 °C. Besides, on h-NK1 receptors, the inhibition at 1 mg/kg is more than 80%.
The matching figures for `CC1(C)COCCN1CC=CCN1CCN(C(=O)c2cc(C(F)(F)F)cc(C(F)(F)F)c2)[C@H](Cc2c[nH]c3ccccc23)C1.Cl.Cl` [Example 86, (2R) -1-[3,5-Bis(trifluoromethyl)benzoyl]-2-(1H-indol-3-ylmethyl)-4-[4-(3,3-dimethylmorpholino)-2-butenyl]piperazine dihydrochloride]: 210 °C (dec.) and more than 80%.
